Results on 30 compounds are retold here after US20240336608A1, “IL4I1 INHIBITORS AND METHODS OF USE” (Merck Sharp & Dohme LLC, priority 2023, published 2024).

The assay concerns the target T1, recombinant IL4I1 (Homo sapiens, UniProt Q96RQ9).
T1 construct: purchased R&D Systems 5684-AO-020
T1 sequence (Q96RQ9 22-567): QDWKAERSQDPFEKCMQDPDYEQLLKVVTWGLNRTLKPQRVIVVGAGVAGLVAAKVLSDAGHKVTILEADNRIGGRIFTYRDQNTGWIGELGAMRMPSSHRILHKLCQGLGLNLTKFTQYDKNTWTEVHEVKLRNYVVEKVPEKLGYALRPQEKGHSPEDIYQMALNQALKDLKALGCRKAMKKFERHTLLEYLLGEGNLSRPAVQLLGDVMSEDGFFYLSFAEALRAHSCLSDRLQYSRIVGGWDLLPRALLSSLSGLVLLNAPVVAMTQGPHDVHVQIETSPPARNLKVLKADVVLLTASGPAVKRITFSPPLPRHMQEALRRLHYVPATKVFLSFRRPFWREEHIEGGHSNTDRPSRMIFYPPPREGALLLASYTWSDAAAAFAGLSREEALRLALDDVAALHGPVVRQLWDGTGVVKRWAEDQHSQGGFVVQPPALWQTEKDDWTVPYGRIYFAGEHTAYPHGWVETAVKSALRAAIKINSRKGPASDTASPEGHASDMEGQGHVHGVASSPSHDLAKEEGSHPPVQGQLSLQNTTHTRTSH
The assay can be described thus: IL4I1 Enzymatic Assay (Amplex Red/HRP coupled detection of H2O2, fluorescence). The assay is classed as biochemical. Conditions: 1 nM recombinant IL4I1; four-hour pre-incubation with compound; 1 mM each Phe, Tyr, Trp; ten-point titration. In outline: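 Recombinant IL4I1 (1 nM final) pre-incubated 4 h at ambient temperature with compound (0.5% DMSO) in 50 mM Hepes pH 7.0, 0.005% Tween20; reaction started with 1 mM each Phe/Tyr/Trp plus excess Amplex Red/HRP, run 120 min. H2O2 read as resorufin fluorescence; EC50 from 10-point four-parameter fit.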
One may read the EC50 as the concentration needed to bring the measured effect to its halfway point. Consider `O=C(NCc1nnc(-c2ccccc2)s1)c1cn(C2CCCOC2)nn1` (stereo not drawn) [Example 177, N-((5-phenyl-1,3,4-thiadiazol-2-yl)methyl)-1-(tetrahydro-2H-pyran-3-yl)-1H-1,2,3-triazole-4-carboxamide], for which the EC50 stood at 114 nM.

On to `CC1(n2cc(C(=O)NCc3nnc(-c4ccccc4)s3)nn2)CS(=O)(=O)C1` [Example 178, 1-(3-methyl-1,1-dioxidothietan-3-yl)-N-((5-phenyl-1,3,4-thiadiazol-2-yl)methyl)-1H-1,2,3-triazole-4-carboxamide], for which the EC50 was found to be 267 nM.

On to `O=C(NCc1nnc(-c2ccccc2)s1)c1cn(C[C@H]2CCCO2)nn1` [Example 179, (R)-N-((5-phenyl-1,3,4-thiadiazol-2-yl)methyl)-1-((tetrahydrofuran-2-yl)methyl)-1H-1,2,3-triazole-4-carboxamide], for which the EC50 turned out to be 238 nM.

`C[C@@H](O)Cn1cc(C(=O)NCc2nnc(-c3ccccc3)s2)nn1` [Example 180, (R)-1-(2-hydroxypropyl)-N-((5-phenyl-1,3,4-thiadiazol-2-yl)methyl)-1H-1,2,3-triazole-4-carboxamide]: the EC50 is 75 nM.

As to `O=C(NCc1nnc(-c2ccccc2)s1)c1cn(CC(O)C2CC2)nn1` (stereo not drawn) [Example 181, 1-(2-cyclopropyl-2-hydroxyethyl)-N-((5-phenyl-1,3,4-thiadiazol-2-yl)methyl)-1H-1,2,3-triazole-4-carboxamide], the EC50 is 239 nM.

As for `O=C(NCc1nnc(-c2ccccc2)s1)c1cn([C@@H]2CC(=O)N(C3CC3)C2)nn1` [Example 182, (R)-1-(1-cyclopropyl-5-oxopyrrolidin-3-yl)-N-((5-phenyl-1,3,4-thiadiazol-2-yl)methyl)-1H-1,2,3-triazole-4-carboxamide], the EC50 is 610 nM.

With `CN1CC(n2cc(C(=O)NCc3nnc(-c4ccccc4)s3)nn2)CC1=O` (stereo not drawn) [Example 183, 1-(1-methyl-5-oxopyrrolidin-3-yl)-N-((5-phenyl-1,3,4-thiadiazol-2-yl)methyl)-1H-1,2,3-triazole-4-carboxamide], the EC50 was determined as 139 nM.

On to `O=C(NCc1nnc(-c2ccccc2)s1)c1cn([C@H]2CCOC[C@@H]2O)nn1` [Example 184, 1-((3R,4S)-3-hydroxytetrahydro-2H-pyran-4-yl)-N-((5-phenyl-1,3,4-thiadiazol-2-yl)methyl)-1H-1,2,3-triazole-4-carboxamide], for which the half-maximal effective concentration (EC50) came to 77 nM.

For `O=C(NCc1nnc(-c2ccccc2)s1)c1cn(CC2(CO)COC2)nn1` [Example 185, 1-((3-(hydroxymethyl)oxetan-3-yl)methyl)-N-((5-phenyl-1,3,4-thiadiazol-2-yl)methyl)-1H-1,2,3-triazole-4-carboxamide], the 50% effective concentration (EC50) was found to be 25 nM.

On to `C[C@H](O)[C@H](CO)n1cc(C(=O)NCc2nnc(-c3ccccc3)s2)nn1` [Example 186, 1-((2S,3S)-1,3-dihydroxybutan-2-yl)-N-((5-phenyl-1,3,4-thiadiazol-2-yl)methyl)-1H-1,2,3-triazole-4-carboxamide], for which the EC50 worked out at 274 nM.

On to `C[C@@H](O)[C@H](CO)n1cc(C(=O)NCc2nnc(-c3ccccc3)s2)nn1` [Example 187, 1-((2S,3R)-1,3-dihydroxybutan-2-yl)-N-((5-phenyl-1,3,4-thiadiazol-2-yl)methyl)-1H-1,2,3-triazole-4-carboxamide], for which the concentration giving a half-maximal response (EC50) amounted to 196 nM.

With `O=C(NCc1nnc(-c2ccccc2)s1)c1cn(C2CS(=O)(=O)CC2O)nn1` (stereo not drawn) [Example 188, 1-(4-hydroxy-1,1-dioxidotetrahydrothiophen-3-yl)-N-((5-phenyl-1,3,4-thiadiazol-2-yl)methyl)-1H-1,2,3-triazole-4-carboxamide], the EC50 stood at 155 nM.

`O=C(NCc1nnc(-c2ccccc2)s1)c1cn([C@H]2COC[C@@H]2O)nn1` [Example 189, 1-((3S,4R)-4-hydroxytetrahydrofuran-3-yl)-N-((5-phenyl-1,3,4-thiadiazol-2-yl)methyl)-1H-1,2,3-triazole-4-carboxamide]: the EC50 is 107 nM.

Consider `O=C(NCc1nnc(-c2ccccc2)s1)c1cn([C@@H]2C[C@@H](O)[C@@H](O)C2)nn1` [Example 190, 1-((1s,3R,4S)-3,4-dihydroxycyclopentyl)-N-((5-phenyl-1,3,4-thiadiazol-2-yl)methyl)-1H-1,2,3-triazole-4-carboxamide], for which the EC50 worked out at 499 nM.

For the compound `O=C(NCc1nnc(-c2ccccc2)s1)c1cn(CC(O)CO)nn1` (stereo not drawn) [Example 191, 1-(2,3-dihydroxypropyl)-N-((5-phenyl-1,3,4-thiadiazol-2-yl)methyl)-1H-1,2,3-triazole-4-carboxamide], the EC50 turned out to be 12 nM.

In the case of `O=C1COC(Cn2cc(C(=O)NCc3nnc(-c4ccccc4)s3)nn2)CN1` (stereo not drawn) [Example 192, 1-((5-oxomorpholin-2-yl)methyl)-N-((5-phenyl-1,3,4-thiadiazol-2-yl)methyl)-1H-1,2,3-triazole-4-carboxamide], the EC50 was 264 nM.

Turning to `CN(C)C(=O)CCn1cc(C(=O)NCc2nnc(-c3ccccc3)s2)nn1` [Example 193, 1-(3-(dimethylamino)-3-oxopropyl)-N-((5-phenyl-1,3,4-thiadiazol-2-yl)methyl)-1H-1,2,3-triazole-4-carboxamide], the 50% effective concentration (EC50) came to 958 nM.

On to `O=C(NCc1nnc(-c2ccccc2)s1)c1cn(CCCO)nn1` [Example 194, 1-(3-hydroxypropyl)-N-((5-phenyl-1,3,4-thiadiazol-2-yl)methyl)-1H-1,2,3-triazole-4-carboxamide], for which the EC50 was 7 nM.

Take `CCC(CO)(CO)n1cc(C(=O)NCc2nnc(-c3ccccc3)s2)nn1` [Example 195, 1-(1-hydroxy-2-(hydroxymethyl)butan-2-yl)-N-((5-phenyl-1,3,4-thiadiazol-2-yl)methyl)-1H-1,2,3-triazole-4-carboxamide]: the concentration giving a half-maximal response (EC50) was 532 nM.

On to `O=C(NCc1nnc(-c2ccccc2)s1)c1cn(C2CCC(O)C2)nn1` (stereo not drawn) [Example 196, 1-(3-hydroxycyclopentyl)-N-((5-phenyl-1,3,4-thiadiazol-2-yl)methyl)-1H-1,2,3-triazole-4-carboxamide], for which the EC50 was determined as 11 nM.

`N#CC1(n2cc(C(=O)NCc3nnc(-c4ccccc4)s3)nn2)CCOC1` (stereo not drawn) [Example 197, 1-(3-cyanotetrahydrofuran-3-yl)-N-((5-phenyl-1,3,4-thiadiazol-2-yl)methyl)-1H-1,2,3-triazole-4-carboxamide]: the EC50 was 28 nM.

As to `O=C(NCc1nnc(-c2ccccc2)s1)c1cn([C@@H]2COC[C@@H]2F)nn1` [Example 198, 1-((3R,4R)-4-fluorotetrahydrofuran-3-yl)-N-((5-phenyl-1,3,4-thiadiazol-2-yl)methyl)-1H-1,2,3-triazole-4-carboxamide], the EC50 is 17 nM.

With `O=C(NCc1nnc(-c2ccccc2)s1)c1cn([C@H]2COC[C@@H]2F)nn1` [Example 199, 1-((3S,4R)-4-fluorotetrahydrofuran-3-yl)-N-((5-phenyl-1,3,4-thiadiazol-2-yl)methyl)-1H-1,2,3-triazole-4-carboxamide], the half-maximal effective concentration (EC50) turned out to be 140 nM.

For `O=C(NCc1nnc(-c2ccccc2)s1)c1cn(C2C3COCC32)nn1` (stereo not drawn) [Example 200, 1-(3-oxabicyclo[3.1.0]hexan-6-yl)-N-((5-phenyl-1,3,4-thiadiazol-2-yl)methyl)-1H-1,2,3-triazole-4-carboxamide], the concentration giving a half-maximal response (EC50) came out at 537 nM.

Regarding `CC(C)(O)Cn1cc(C(=O)NCc2nnc(-c3ccccc3)s2)nn1` [Example 201, 1-(2-hydroxy-2-methylpropyl)-N-((5-phenyl-1,3,4-thiadiazol-2-yl)methyl)-1H-1,2,3-triazole-4-carboxamide], the EC50 stood at 226 nM.

As to `CC(n1cc(C(=O)NCc2nnc(-c3ccccc3)s2)nn1)C(F)(F)F` (stereo not drawn) [Example 203, N-((5-phenyl-1,3,4-thiadiazol-2-yl)methyl)-1-(1,1,1-trifluoropropan-2-yl)-1H-1,2,3-triazole-4-carboxamide], the half-maximal effective concentration (EC50) was 31 nM.

On to `CC([C@H]1CCCO1)n1cc(C(=O)NCc2nnc(-c3ccccc3)s2)nn1` (stereo partly drawn) [Example 204, N-((5-phenyl-1,3,4-thiadiazol-2-yl)methyl)-1-(1-((R)-tetrahydrofuran-2-yl)ethyl)-1H-1,2,3-triazole-4-carboxamide], for which the EC50 was found to be 74 nM.

As to `C[C@H]1OCC[C@H]1Cn1cc(C(=O)NCc2nnc(-c3ccccc3)s2)nn1` [Example 205, 1-(((2R,3S)-2-methyltetrahydrofuran-3-yl)methyl)-N-((5-phenyl-1,3,4-thiadiazol-2-yl)methyl)-1H-1,2,3-triazole-4-carboxamide], the concentration giving a half-maximal response (EC50) is 33 nM.

As to `O=C(NCc1nnc(-c2ccccc2)s1)c1cn(C2CCCC(O)C2)nn1` (stereo not drawn) [Example 206, 1-(3-hydroxycyclohexyl)-N-((5-phenyl-1,3,4-thiadiazol-2-yl)methyl)-1H-1,2,3-triazole-4-carboxamide], the EC50 is 226 nM.

Turning to `O=C(NCc1nnc(-c2ccccc2)s1)c1cn(CCC2CCCO2)nn1` (stereo not drawn) [Example 207, N-((5-phenyl-1,3,4-thiadiazol-2-yl)methyl)-1-(2-(tetrahydrofuran-2-yl)ethyl)-1H-1,2,3-triazole-4-carboxamide], the concentration for a half-maximal effect (EC50) stood at 327 nM.
